Results from US4314028A, “Fermentation process for producing tallysomycin compounds” (priority 1980, dated 1982).

How the values were obtained:
[1] = tested on: Mycobacterium smegmatis strain M6-3; test: Relative antibacterial potency, paper-disc agar diffusion method; assay type: cell-based; settings: relative to tallysomycin A standard=1000 mcg/mg
Method: The relative antibacterial potencies (tallysomycin A standard=1000 mcg/mg) of the tallysomycin derivatives were determined by the paper-disc agar diffusion method using Mycobacterium smegmatis strain M6-3 as the assay organism.

[2] = tested on: lysogenic bacterium E. coli W1709 (λ); test: Prophage induction of lysogenic bacterium (ILB activity); assay type: cell-based; settings: t/c ratio of plaque counts greater than 3.0
Method: The activity of prophage induction of lysogenic bacterium E. coli W1709 (λ) was determined according to the method disclosed by Lein et al. in Nature 196: 783-784 (1962). The plaque count was made on the agar plate containing test compound (t) and control plate (c). A t/c ratio of the plaque counts of greater than 3.0 was defined to be a significant level and lysogenic induction activity (ILB activity) was expressed by the minimum inducible concentration of the test compound.

Sarcina lutea PCI1001 = test: MIC, two-fold agar dilution method; assay type: cell-based; settings: nutrient agar
Method: (§1) The minimum inhibitory concentrations (MIC) of the semibiosynthetic tallysomycin derivatives of the present invention were determined against fungi and gram-positive, gram-negative and acid-fast bacteria by the two-fold agar dilution method. Nutrient agar was used for bacteria and Sabouraud agar for fungi. The results are shown in the table below comparatively with tallysomycin A and B.

[3] = tested on: Candida albicans IAM 4888; test: MIC, two-fold agar dilution method; assay type: cell-based; settings: Sabouraud agar
Method: as §1

Escherichia coli NIHJ = test: MIC, two-fold agar dilution method; assay type: cell-based; settings: nutrient agar
Method: as §1

Mycobacterium 607 = test: MIC, two-fold agar dilution method; assay type: cell-based; settings: nutrient agar
Method: as §1

[4] = tested on: Aspergillus fumigatus IAM 2593; test: MIC, two-fold agar dilution method; assay type: cell-based; settings: Sabouraud agar
Method: as §1

[5] = tested on: Staphylococcus aureus Smith; test: MIC, two-fold agar dilution method; assay type: cell-based; settings: nutrient agar
Method: as §1

Proteus mirabilis A9554 = test: MIC, two-fold agar dilution method; assay type: cell-based; settings: nutrient agar
Method: as §1

[6] = tested on: Bacillus subtilis PCI 219; test: MIC, two-fold agar dilution method; assay type: cell-based; settings: nutrient agar
Method: as §1

[7] = Acute toxicity, single dose LD50; assay type: in vivo, dd mice; settings: ip, 30 days observation, copper-chelated form unless otherwise stated
Method: Graded doses of test compounds were administered intraperitoneally to groups of dd mice. The injection was given one time only or once daily for 9 consecutive days. Death or survival of the animals was recorded for 30 days after the last dose of test compound to calculate the single or multiple median lethal dose (LD50).

[8] = tested on: Lymphocytic leukemia P388; test: animal or person; assay type: in vivo, BDF1 mice; settings: copper-chelated form unless otherwise stated; for Antitumor activity P388 (ED125): ip, once daily 9 days, dose giving T/C survival of 125%; for Antitumor therapeutic index P388: single dose LD50/ED125
Excerpt: (§2) The antitumor activity of the tallysomycin derivatives was examined in four experimental tumor systems in mice. Lymphocytic leukemia P388 and Lewis lung carcinoma were implanted intraperitoneally into BDF1 mice of either sex at an inoculum size of 3×10^5 and 5×10^5 cells per mouse, respectively. Sarcoma 180 ascites tumor was inoculated intraperitoneally into male dd-strain mice with […] per mouse. Melanotic melanoma B16 was implanted subcutaneously into BDF1 mice with 5×10^5 cells per mouse. Twenty-four hours after the implantation of tumor cells, graded doses of test compounds were administered to mice intraperitoneally in an injection volume of 0.2 ml. per 10 grams of body weight. Test compounds were given once daily for 9 days (qd 1→9 schedule) except for the mice inoculated with Lewis lung carcinoma which were treated for 11 days (qd 1→11). Death or survival of the treated and non-treated (control) animals was recorded daily during the observation period of 45 days after the implantation of tumor cells, and the median survival time was calculated for each of the test (T) and control (C) groups. […] The actual dose giving a T/C of 125% was estimated by linear regression analysis and defined as the effective dose 125 or ED125. The effective dose 150 (ED150) was employed for the evaluation of antitumor effect against Sarcoma 180. In the B16 melanoma experiment the tumor size was measured on day 16 after tumor inoculation, and the dose giving 50% inhibition of tumor growth (ID50) was calculated from regression lines.
(§3) The antitumor therapeutic index was calculated for each derivative from the ratio of toxicity and antitumor activity.

Melanotic melanoma B16 = test: Antitumor activity in mice, melanotic melanoma B16; assay type: in vivo, BDF1 mice; settings: copper-chelated form unless otherwise stated; for Antitumor activity B16 (ID50): ip, once daily 9 days, 50% inhibition of tumor growth, day 16, 23040 min; for Antitumor therapeutic index B16: single dose LD50/ID50
Excerpt: as §2, §3

Sarcoma 180 = test: animal or person; assay type: in vivo, dd-strain mice; settings: copper-chelated form unless otherwise stated; for Antitumor activity S180 (ED150): ip, once daily 9 days, effective dose 150, survival; for Antitumor therapeutic index S180: single dose LD50/ED150
Excerpt: as §2, §3

Cc1c(N)nc([C@H](CC(N)=O)NC[C@@H](N)C(N)=O)nc1C(=O)N[C@H](C(=O)N[C@H](C)[C@@H](O)CC(=O)N[C@@H](C(=O)NC(O[C@@H]1O[C@@H](C)[C@@H](N)[C@@H](O)[C@H]1O)C(O)c1nc(-c2nc(C(=O)NCCCNCCCCN)cs2)cs1)[C@@H](C)O)C(O[C@@H]1O[C@@H](CO)[C@H](O)[C@@H](O)[C@@H]1O[C@H]1O[C@H](CO)[C@@H](O)[C@@H](OC(N)=O)[C@@H]1O)c1cnc[nH]1 (some centres unmarked) [Tallysomycin B, reference compound]
Antibacterial potency [1]: 900 μ/mg | ILB activity (minimum inducible concentration) [2]: 0.01 µg/mL | minimum inhibitory concentration (MIC) (Sarcina lutea PCI1001): 0.4 | minimum inhibitory concentration (MIC) [3]: 6.3 | minimum inhibitory concentration (MIC) (Escherichia coli NIHJ): 0.2 | minimum inhibitory concentration (MIC) (Mycobacterium 607): 0.2 | minimum inhibitory concentration (MIC) [4]: 0.8 | minimum inhibitory concentration (MIC) [5]: 0.4 | minimum inhibitory concentration (MIC) (Proteus mirabilis A9554): 0.2 | minimum inhibitory concentration (MIC) [6]: 0.006

Cc1c(N)nc(C(CC(N)=O)NCC(N)C(N)=O)nc1C(=O)NC(C(=O)NC(C)C(O)CC(=O)NC(C(=O)NC(OC1OC(C)C(N)C(O)C1O)C(O)c1nc(-c2nc(C(=O)NCCCC(N)CC(=O)NCCCN(CCO)CCO)cs2)cs1)C(C)O)C(OC1OC(CO)C(O)C(O)C1OC1OC(CO)C(O)C(OC(N)=O)C1O)c1c[nH]cn1 (centres unmarked) [Tallysomycin S8a]
Antibacterial potency [1]: 550 μ/mg | LD50 single dose [7]: 42 mg/kg/day | ILB activity (minimum inducible concentration) [2]: 0.005 µg/mL | minimum inhibitory concentration (MIC) (Sarcina lutea PCI1001): 0.4 | minimum inhibitory concentration (MIC) [3]: 12.5 | minimum inhibitory concentration (MIC) (Escherichia coli NIHJ): 0.1 | minimum inhibitory concentration (MIC) (Mycobacterium 607): 0.1 | minimum inhibitory concentration (MIC) [4]: 0.8 | minimum inhibitory concentration (MIC) [5]: 0.2 | minimum inhibitory concentration (MIC) (Proteus mirabilis A9554): 0.4 | minimum inhibitory concentration (MIC) [6]: 0.006 | Antitumor activity P388 (ED125) [8]: 0.78 mg/kg/day | Antitumor therapeutic index P388 [8]: 54

Cc1c(N)nc(C(CC(N)=O)NCC(N)C(N)=O)nc1C(=O)NC(C(=O)NC(C)C(O)CC(=O)NC(C(=O)NC(OC1OC(C)C(N)C(O)C1O)C(O)c1nc(-c2nc(C(=O)NCCCN3CCOCC3)cs2)cs1)C(C)O)C(OC1OC(CO)C(O)C(O)C1OC1OC(CO)C(O)C(OC(N)=O)C1O)c1c[nH]cn1 (centres unmarked) [Tallysomycin S12b]
Antibacterial potency [1]: 390 μ/mg | Antitumor activity B16 (ID50) (Melanotic melanoma B16): 1.30 mg/kg/day | Antitumor therapeutic index B16 (Melanotic melanoma B16): > 38 | LD50 single dose [7]: > 50 mg/kg/day | ILB activity (minimum inducible concentration) [2]: 0.31 µg/mL | minimum inhibitory concentration (MIC) (Sarcina lutea PCI1001): 12.5 | minimum inhibitory concentration (MIC) [3]: > 100 | minimum inhibitory concentration (MIC) (Escherichia coli NIHJ): 1.6 | minimum inhibitory concentration (MIC) (Mycobacterium 607): 0.2 | minimum inhibitory concentration (MIC) [4]: 25 | minimum inhibitory concentration (MIC) [5]: 12.5 | minimum inhibitory concentration (MIC) (Proteus mirabilis A9554): 50 | minimum inhibitory concentration (MIC) [6]: 0.4 | Antitumor activity S180 (ED150) (Sarcoma 180): 0.06 mg/kg/day | Antitumor therapeutic index S180 (Sarcoma 180): > 833 | Antitumor activity P388 (ED125) [8]: 1.30 mg/kg/day | Antitumor therapeutic index P388 [8]: > 38

Cc1c(N)nc([C@H](CC(N)=O)NC[C@H](N)C(N)=O)nc1C(=O)N[C@H](C(=O)N[C@H](C)[C@@H](O)CC(=O)N[C@H](C(=O)NC(O[C@@H]1O[C@@H](C)[C@@H](N)[C@@H](O)[C@H]1O)C(O)c1nc(-c2nc(C(=O)NCCCC(N)CC(=O)NCCCNCCCCN)cs2)cs1)[C@@H](C)O)[C@H](O[C@@H]1O[C@@H](CO)[C@@H](O)[C@H](O)[C@@H]1O[C@H]1O[C@H](CO)[C@@H](O)[C@H](OC(N)=O)[C@@H]1O)c1c[nH]cn1 (some centres unmarked) [Tallysomycin A, reference compound]
Antibacterial potency [1]: 1,000 μ/mg | ILB activity (minimum inducible concentration) [2]: 0.00125 µg/mL | minimum inhibitory concentration (MIC) (Sarcina lutea PCI1001): 0.05 | minimum inhibitory concentration (MIC) [3]: 12.5 | minimum inhibitory concentration (MIC) (Escherichia coli NIHJ): 0.05 | minimum inhibitory concentration (MIC) (Mycobacterium 607): 0.2 | minimum inhibitory concentration (MIC) [4]: 1.6 | minimum inhibitory concentration (MIC) [5]: 0.1 | minimum inhibitory concentration (MIC) (Proteus mirabilis A9554): 0.4 | minimum inhibitory concentration (MIC) [6]: < 0.003

Cc1c(N)nc(C(CC(N)=O)NCC(N)C(N)=O)nc1C(=O)NC(C(=O)NC(C)C(O)CC(=O)NC(C(=O)NC(OC1OC(C)C(N)C(O)C1O)C(O)c1nc(-c2nc(C(=O)NCCCC(N)CC(=O)NCCCNC(C)c3ccccc3)cs2)cs1)C(C)O)C(OC1OC(CO)C(O)C(O)C1OC1OC(CO)C(O)C(OC(N)=O)C1O)c1c[nH]cn1 (centres unmarked) [Tallysomycin S14a]
Antibacterial potency [1]: 1,300 μ/mg | ILB activity (minimum inducible concentration) [2]: 0.01 µg/mL | minimum inhibitory concentration (MIC) (Sarcina lutea PCI1001): 0.8 | minimum inhibitory concentration (MIC) [3]: 50 | minimum inhibitory concentration (MIC) (Escherichia coli NIHJ): 0.2 | minimum inhibitory concentration (MIC) (Mycobacterium 607): 0.1 | minimum inhibitory concentration (MIC) [4]: 3.1 | minimum inhibitory concentration (MIC) [5]: 0.8 | minimum inhibitory concentration (MIC) (Proteus mirabilis A9554): 3.1 | minimum inhibitory concentration (MIC) [6]: 0.1

CNCCCNC(=O)CC(N)CCCNC(=O)c1csc(-c2csc(C(O)C(NC(=O)C(NC(=O)CC(O)C(C)NC(=O)C(NC(=O)c3nc(C(CC(N)=O)NCC(N)C(N)=O)nc(N)c3C)C(OC3OC(CO)C(O)C(O)C3OC3OC(CO)C(O)C(OC(N)=O)C3O)c3c[nH]cn3)C(C)O)OC3OC(C)C(N)C(O)C3O)n2)n1 (centres unmarked) [Tallysomycin S11a]
Antibacterial potency [1]: 570 μ/mg | LD50 single dose [7]: 18 mg/kg/day | ILB activity (minimum inducible concentration) [2]: 0.08 µg/mL | minimum inhibitory concentration (MIC) (Sarcina lutea PCI1001): 0.2 | minimum inhibitory concentration (MIC) [3]: 1.6 | minimum inhibitory concentration (MIC) (Escherichia coli NIHJ): 0.1 | minimum inhibitory concentration (MIC) (Mycobacterium 607): 0.1 | minimum inhibitory concentration (MIC) [4]: 0.8 | minimum inhibitory concentration (MIC) [5]: 0.8 | minimum inhibitory concentration (MIC) (Proteus mirabilis A9554): 0.2 | minimum inhibitory concentration (MIC) [6]: 0.025 | Antitumor activity P388 (ED125) [8]: 0.60 mg/kg/day | Antitumor therapeutic index P388 [8]: 30

Cc1c(N)nc(C(CC(N)=O)NCC(N)C(N)=O)nc1C(=O)NC(C(=O)NC(C)C(O)CC(=O)NC(C(=O)NC(OC1OC(C)C(N)C(O)C1O)C(O)c1nc(-c2nc(C(=O)NCC(O)CN)cs2)cs1)C(C)O)C(OC1OC(CO)C(O)C(O)C1OC1OC(CO)C(O)C(OC(N)=O)C1O)c1c[nH]cn1 (centres unmarked) [Tallysomycin S4b]
Antibacterial potency [1]: 405 μ/mg | Antitumor activity B16 (ID50) (Melanotic melanoma B16): 0.50 mg/kg/day | Antitumor therapeutic index B16 (Melanotic melanoma B16): 26 | LD50 single dose [7]: 13 mg/kg/day | minimum inhibitory concentration (MIC) (Sarcina lutea PCI1001): 3.1 | minimum inhibitory concentration (MIC) [3]: 25 | minimum inhibitory concentration (MIC) (Escherichia coli NIHJ): 0.4 | minimum inhibitory concentration (MIC) (Mycobacterium 607): 0.003 | minimum inhibitory concentration (MIC) [4]: 0.8 | minimum inhibitory concentration (MIC) [5]: 0.8 | minimum inhibitory concentration (MIC) (Proteus mirabilis A9554): 0.4 | minimum inhibitory concentration (MIC) [6]: 0.006 | Antitumor activity S180 (ED150) (Sarcoma 180): 0.13 mg/kg/day | Antitumor therapeutic index S180 (Sarcoma 180): 100 | Antitumor activity P388 (ED125) [8]: > 3.0 mg/kg/day | Antitumor therapeutic index P388 [8]: < 4
